Measurements published in publication PMC12350473, “Pharmacokinetics and brain tissue distribution of Gastrodia elata extract in normal and cerebral ischemic rats: a comparative study” (Frontiers in Pharmacology, 2025).

Key:
in vivo = details: male, Sprague-Dawley, rat, po
[1] = Plasma pharmacokinetics of GEB constituents after oral GEB extract in normal and MCAO rats (UPLC-MS/MS, non-compartmental); details: for AUC0-t / Tmax / AUC0−∞ / CLz/F / Cmax / MRT0-t / T1/2 / Vz/F: plasma
[2] = Brain tissue distribution of GEB constituents after oral GEB extract in normal and MCAO rats; format: in vivo
Procedure: An independent cohort (n = 6/group) was sacrificed under deep anesthesia (pentobarbital sodium 40 mg/kg, i. p.) at 0.5 h, 1 h, 3 h, and 12 h post-final dosing. Cerebral perfusion was performed with ice-cold normal saline via left ventricular cannulation to eliminate residual blood. Whole brains were rapidly excised, weighed, and homogenized in four volumes of phosphate-buffered saline (pH 7.4) using a tissue grinder (Precellys 24, Bertin Technologies, France). Homogenates were centrifuged at 12,000 × g for 15 min at 4°C. The supernatants were filtered through 0.22 μm PVDF membranes and aliquoted into polypropylene tubes.
Weigh 300 mg of rat brain tissue and add 3 volumes of PBS solution. […] Collect the supernatant to obtain the test tissue homogenate. Take 400 µL of the homogenate, add 50 µL of internal standard solution and 1,150 µL of methanol, then vortex-mix for 5 min.

[3] = system: cerebral ischemia in rats; test: Therapeutic effect of GEB extract on cerebral ischemia (MCAO): mNSS, body weight, survival, TTC staining; format: in vivo; details: vs MCAO group, GEB low and high dose, nimodipine control
Procedure: High-dose GEB extract was prepared by adding 4.8 g of GEB extract in 40 mL of purified water to make a 120 mg/mL solution (calculated based on the human daily intake of 48 g of GEB).
The low dose of GEB was prepared by adding 2 g of GEB extract in 40 mL of purified water to make a 50 mg/mL solution (calculated based on the human daily intake of 20 g of GEB).
For preparing positive drugs, 2 nimodipine tablets (30 mg/tablet) were ground and added to 50 mL of purified water to make a 1.2 mg/mL solution (calculated based on the human daily intake of 120 mg of nimodipine).
After induction of deep anesthesia with pentobarbital (40 mg/kg), the rats were euthanized by cervical dislocation, followed by decapitation for brain removal. The brains were immediately flash-frozen in a freezer for 20 min. Then, the olfactory bulb and cerebellum were removed, the brain was cut into 6 coronal sections from anterior to posterior, stained with 1% TTC solution in the dark for 20 min at 37°C, and preserved in 4% paraformaldehyde for 30 min.
Rats were allocated into five groups: sham-operated (Sham), MCAO, low-dose GEB extract (GEB-L), high-dose GEB extract (GEB-H), and nimodipine control (NMDP). […] Longitudinal monitoring included body weight tracking and survival assessment, complemented by triphenyltetrazolium chloride (TTC) staining for cerebral infarction evaluation at study termination.

[4] = set-up: method as in Tang et al., 2015; details: ref Tang et al., 2015; cited from earlier work
[5] = MCAO rats, GEB extract 1,200 mg/kg oral gavage once daily for 3 days
[6] = MCAO rats, oral GEB extract 4.8 g/kg, n = 8
[7] = comparison among components after oral GEB extract
[8] = MCAO vs normal rats, range over PA, PB, PC, GAS, p < 0.05
[9] = normal rats, oral GEB extract 4.8 g/kg, n = 8

Row | Structure (SMILES) | AUC0-t (in vivo; plasma, 4.8 g/kg) | AUC(0-inf) (in vivo; plasma, 4.8 g/kg) | CL/F (in vivo; plasma, 4.8 g/kg) | Cmax (in vivo; plasma, 4.8 g/kg) | MRT last (in vivo; plasma, 4.8 g/kg) | Tmax (in vivo; plasma, 4.8 g/kg) | half-life (in vivo; plasma, 4.8 g/kg) | AUC0-t [1, 5] | AUC0-t [1, 6] | AUC0−∞ [1, 6] | CLz/F [1, 6] | Cmax [1, 6] | MRT0-t [1, 6] | T1/2 [1, 6] | Tmax [1, 6] | Vz/F [1, 6] | BBB penetration / cerebral distribution (in words) [2, 7] | Vz/F [1, 9] | further results
1 | N[C@@H](CCC(=O)N[C@@H](CSCc1ccc(O)cc1)C(=O)NCC(=O)O)C(=O)O [4-HBG, S-(4-hydroxybenzyl) glutathione] | 113 ± 37.7 ng·h/mL | 120 ± 37 ng·h/mL | 1090 mL/min/kg | 24.1 ± 8.4 ng/mL | 4.18 ± 0.51 h | 3.5 ± 0.93 h | 2.27 ± 1.14 h | 129 ± 53 ng·h/mL | 124.8 ± 51.3 ng·h/mL | 129.1 ± 52.8 ng·h/mL | 1050 ± 367 mL/min/kg | 24.6 ± 11.2 ng/mL | 4.37 ± 0.50 h | 2.03 ± 0.24 h | 3.75 ± 0.71 h | 186.8 ± 73.0 L/kg |  |  | AUC0-t (in vivo; plasma, 1200 mg/kg): 120 ± 37 ng·h/mL; Tmax (in vivo; plasma, 1200 mg/kg): 2.3 ± 1.1 h; Vd/F (in vivo; plasma, 4.8 g/kg): 212 ± 102 L/kg; Tmax ([1]; MCAO rats, GEB extract oral): 2.03 ± 0.2 h
2 | OCc1ccc(O[C@@H]2O[C@H](CO)[C@@H](O)[C@H](O)[C@H]2O)cc1 [GAS, gastrodin] |  |  |  |  |  |  |  | 4,836 ± 791 ng*h/mL | 4,835.6 ± 790.9 ng*h/mL | 4,914.0 ± 728.3 ng*h/mL | 53.3 ± 8.3 mL/min/kg | 4,646.2 ± 1,195.9 ng/mL | 0.88 ± 0.20 h | 0.58 ± 0.29 h | 0.27 ± 0.16 h | 2.7 ± 1.6 L/kg | limited BBB penetration |  | cerebral concentration ([2]; normal rats, brain tissue, GEB extract oral): < 40 ng/mL; AUC0-t (in vivo; in vivo, 1200 mg/kg): 6620 ng·h/mL; Cmax (in vivo; in vivo, 1200 mg/kg): 6620 ng/mL; AUC0-t (in vivo; in vivo, 4.8 g/kg): 6620 ng·h/mL; AUC(0-inf) (in vivo; in vivo, 4.8 g/kg): 6690 ng·h/mL; CL/F (in vivo; in vivo, 4.8 g/kg): 38.3 mL/min/kg; Cmax (in vivo; in vivo, 4.8 g/kg): 6620 ng/mL; MRT last (in vivo; in vivo, 4.8 g/kg): 0.83 ± 0.06 h; Tmax (in vivo; in vivo, 4.8 g/kg): 0.31 ± 0.12 h; Vd/F (in vivo; in vivo, 4.8 g/kg): 2 ± 0.2 L/kg; half-life (in vivo; in vivo, 4.8 g/kg): 0.6 ± 0.07 h; Cmax ([1]; MCAO rats, GEB extract 1,200 mg/kg oral once daily for 3 days): 4,646 ± 1,195 ng/mL; CLz/F increase in MCAO rats compared to controls [1, 8]: 1.4–2.0 fold
3 | OCc1ccc(O)cc1 [HBA, 4-hydroxybenzyl alcohol] |  |  |  |  |  |  |  |  |  |  |  |  |  |  |  |  |  |  | concentration in rats (in words) ([1]; rats after oral GEB extract): very low
4 | COCCOC(=O)C1=C(C)NC(C)=C(C(=O)OC(C)C)C1c1cccc([N+](=O)[O-])c1 (centres unmarked) [NMDP, nimodipine] |  |  |  |  |  |  |  |  |  |  |  |  |  |  |  |  |  |  | therapeutic effect on neurological deterioration, weight loss and infarction [3]: improved these outcomes
5 | O=C(CC(O)(CC(=O)OCc1ccc(O[C@@H]2O[C@H](CO)[C@@H](O)[C@H](O)[C@H]2O)cc1)C(=O)OCc1ccc(O[C@@H]2O[C@H](CO)[C@@H](O)[C@H](O)[C@H]2O)cc1)OCc1ccc(O[C@@H]2O[C@H](CO)[C@@H](O)[C@H](O)[C@H]2O)cc1 [PA, Parishin A] | 148 ± 21.9 ng·h/mL | 153 ± 23.5 ng·h/mL | 8150 mL/min/kg | 79.8 ± 9.8 ng/mL | 1.26 ± 0.09 h | 0.94 ± 0.18 h | 0.74 ± 0.1 h |  | 75.4 ± 29.3 ng·h/mL | 85.9 ± 25.0 ng·h/mL |  | 41.5 ± 18.5 ng/mL | 1.33 ± 0.27 h | 1.41 ± 1.75 h | 0.78 ± 0.31 h | 1706.9 ± 1891.6 L/kg | superior BBB permeability | 518.7 ± 88.3 L/kg | average GAS molecules released per parent compound [4]: 1.5; conversion efficiency of partial hydrolysis in vivo [4]: 50%; CLz/F increase in MCAO rats compared to controls ([1]; rat, in vivo): 1.4–2.0 fold
6 | O=C(O)CC(O)(CC(=O)OCc1ccc(O[C@@H]2O[C@H](CO)[C@@H](O)[C@H](O)[C@H]2O)cc1)C(=O)OCc1ccc(O[C@@H]2O[C@H](CO)[C@@H](O)[C@H](O)[C@H]2O)cc1 (some centres unmarked) [PB, Parishin B] | 215 ± 37.4 ng·h/mL | 230 ± 50.9 ng·h/mL | 2790 mL/min/kg |  | 1.42 ± 0.13 h | 1 h |  |  | 108.0 ± 48.8 ng·h/mL | 123.7 ± 38.8 ng·h/mL | 5497 ± 1755 mL/min/kg | 48.8 ± 22.9 ng/mL | 1.63 ± 0.53 h | 2.16 ± 2.76 h | 0.72 ± 0.31 h | 1,034.1 ± 1,468.2 L/kg | superior BBB permeability | 237.9 ± 98.4 L/kg | Cmax [1, 9]: 112.8 ± 22.8 ng/mL; T1/2 [1, 9]: 1.01 ± 0.42 h; CLz/F increase in MCAO rats compared to controls ([1]; rat, in vivo): 1.4–2.0 fold
7 | O=C(CC(O)(CC(=O)OCc1ccc(O[C@@H]2O[C@H](CO)[C@@H](O)[C@H](O)[C@H]2O)cc1)C(=O)O)OCc1ccc(O[C@@H]2O[C@H](CO)[C@@H](O)[C@H](O)[C@H]2O)cc1 [PC, Parishin C] | 56.4 ± 16.2 ng·h/mL | 71.1 ± 18.5 ng·h/mL | 1740 mL/min/kg | 21.5 ± 5.8 ng/mL | 1.78 ± 0.3 h | 0.94 ± 0.5 h | 1.84 ± 0.56 h |  | 30.1 ± 9.6 ng·h/mL | 41.5 ± 15.7 ng·h/mL | 3078 ± 1070 mL/min/kg | 12.1 ± 4.6 ng/mL | 1.68 ± 0.29 h | 2.35 ± 2.08 h | 1.13 ± 0.35 h | 543.6 ± 442.8 L/kg |  | 266.7 ± 78.4 L/kg | BBB penetration / cerebral distribution (in words) ([2]; rat, in vivo, po): superior BBB permeability; CLz/F increase in MCAO rats compared to controls [1, 8]: 1.4–2.0 fold
8 | O=C(O)CC(O)(CC(=O)OCc1ccc(O[C@@H]2O[C@H](CO)[C@@H](O)[C@H](O)[C@H]2O)cc1)C(=O)O (some centres unmarked) [PE, Parishin E] | 1210 ng·h/mL | 1310 ng·h/mL | 697 mL/min/kg | 375 ± 45.5 ng/mL | 2.41 ± 0.33 h | 1.13 ± 0.35 h | 1.82 ± 1.13 h | 1,148 ± 530 ng*h/mL | 1,107.5 ± 517.6 ng*h/mL | 1,147.5 ± 530.4 ng*h/mL |  | 324.9 ± 129.0 ng/mL | 2.68 ± 0.76 h | 1.95 ± 1.03 h | 1.25 ± 0.46 h | 113.9 ± 64.2 L/kg | moderate cerebral distribution |  | concentration at 12 h ([2]; male, Sprague-Dawley, rat, brain, oral, 1200 mg/kg, MCAO rats, 12 h post-final dosing): 4.25 ± 2.46 ng/g; AUC0-t (in vivo; plasma, 1200 mg/kg): 1310 ng·h/mL; Vd/F (in vivo; plasma, 4.8 g/kg): 78.6 ± 24.2 L/kg
